Results reported in US8053453B2, “Pyrazolone compounds and thrombopoietin receptor activator” (Nissan Chemical Industries, Ltd., priority 2002, dated 2011).
Where two headings read alike, the source gives them in different places.

Target: T1, human TPO receptor (Homo sapiens, UniProt P40238)
T1 construct: expressed in transfected cells
T1 sequence (P40238 26-635): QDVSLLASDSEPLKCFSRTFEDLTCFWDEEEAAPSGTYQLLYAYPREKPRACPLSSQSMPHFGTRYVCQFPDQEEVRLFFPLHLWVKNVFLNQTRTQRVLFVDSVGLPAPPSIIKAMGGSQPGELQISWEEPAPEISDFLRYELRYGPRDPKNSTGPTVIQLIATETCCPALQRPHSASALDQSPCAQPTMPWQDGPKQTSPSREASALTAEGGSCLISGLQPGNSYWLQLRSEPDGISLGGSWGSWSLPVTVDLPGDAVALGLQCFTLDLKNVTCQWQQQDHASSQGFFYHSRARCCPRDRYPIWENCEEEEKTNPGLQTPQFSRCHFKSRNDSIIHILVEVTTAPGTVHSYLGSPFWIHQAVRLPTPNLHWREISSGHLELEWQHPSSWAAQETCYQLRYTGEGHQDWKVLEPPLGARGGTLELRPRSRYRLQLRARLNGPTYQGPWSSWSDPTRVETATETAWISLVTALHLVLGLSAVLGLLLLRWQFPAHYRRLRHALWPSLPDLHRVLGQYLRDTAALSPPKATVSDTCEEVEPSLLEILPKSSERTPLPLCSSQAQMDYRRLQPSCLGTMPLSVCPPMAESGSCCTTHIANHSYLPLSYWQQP
Test: Proliferation of TPO-dependent cell line UT7/EPO-mpl, MTT method (Assay Examples 1, 3, 4)
Format: cell-based
Conditions: UT7/EPO-mpl cells; for EC50: concentration giving 50% of the maximum cell growth observed with the same compound; for Efficacy (%) (maximal growth rate) / Emax: value in the presence of 10 ng/ml TPO taken as 100% standard, method of Assay Example 1; for Emax: read-out: Efficacy (%) (maximal growth rate)
Description: The reactivity of Synthetic Example 56, the compound of the present invention, with thrombopoietin (TPO) receptor was assayed using a human leukemic cell line, UT7/EPO-mpl.
UT7/EPO-mpl is a stable transformed cell line obtained by introducing into human leukemic cell line UT7/EPO a vector that induces expression of human TPO receptor (c-mp1) under control of a cytomegaloviral promoter by the method of Takatoku et al. (J. Biol. Chem., 272:7259-7263 (1997)). […] These two cell lines were subcultured in Iscove's modified Dulbecco's medium (IMDM; GIBCO) containing 10% fetal bovine serum (FBS; TRACE SCIENTIFIC) using a CO2 incubator (5% CO2, 37° C.).
The subcultured cells described above were washed twice with phosphate buffered saline (PBS) and suspended in IMDM containing 10% FBS at a cell density of 6×10^4 cells/ml. The cell suspension was transferred to a 96-well tissue culture plate (CORNING) in 100-μl aliquots. Then either TPO (PeproTech EC) or Synthetic Example 56 dissolved in dimethylsulfoxide (DMSO) was diluted 83-fold with IMDM containing 10% FBS and added to the aforementioned cell suspension in 20-μl aliquots. The suspension was incubated in a CO2 incubator (5% CO2, 37° C.) for 4 days. Cell proliferation was assayed according to the method of Mosmann et al. (J. Immunol. Methods, 65:55-63 (1983)). A 10-μl aliquot of 5 mg/ml MTT reagent (SIGMA) was added to each well of the tissue culture plate and the plate was incubated at 37° C. for 4 h. The formazan pigment generated was dissolved by adding 150 μl per well of 0.1 M HCl/isopropanol solution and the absorbance of the resulting pigment solution was measured at 550 nm with a 96-well microplate reader (BIO-RAD, M450).
The following Synthetic Examples were tested according to the method of Assay Example 1 to determine the maximal growth rate (efficacy), expressed by taking the value with human leukemic cell line UT7/EPO-mpl observed in the presence of 10 ng/ml TPO as 100% standard, and the concentration of each compound that yields a growth rate corresponding to 50% of the maximum cell growth observed with the same compound (EC50).
Synthetic Example 56, the compound of the present invention, and four compounds (Reference Synthetic Examples 1 to 4) described in a publication of international patent application (Publication No. WO01/34585, applied by SmithKline Beecham Corp.) were tested according to the method of Assay Example 1.

[1] = read-out: EC50 (ng/ml) (converted)

SMILES	EC50 [µg/mL]	Efficacy (%) (maximal growth rate)	EC50 [1] [nM]	Emax [%]
CC1=NN(c2ccccc2)C(=O)C1=C(C)NNC(=O)c1ccccc1O [compound 16]	0.061	58		
CC1=NN(c2ccc(I)cc2)C(=O)C1=C(C)NNC(=O)c1ccc([N+](=O)[O-])cc1 [compound 44]	0.25	26		
CC1=NN(c2ccc(Cl)c(Cl)c2)C(=O)C1=C(C)NNC(=O)c1cccc(O)c1 [compound 83]			14.5	78
CC1=NN(c2ccc(C(F)(F)F)cc2)C(=O)C1=C(C)NNC(=O)c1ccc(C(=O)O)cc1 [compound 11]	0.002	83		
CC1=NN(c2ccc(I)cc2)C(=O)C1=C(C)NNC(=O)c1ccccc1O [compound 38]	0.036	93		
CC1=NN(c2ccccc2)C(=O)C1=C(C)NNC(=O)c1ccc(O)c(O)c1 [compound 20]	0.038	91		
CC1=NN(c2ccc(C(C)(C)C)cc2)C(=O)C1=C(C)NNC(=O)c1cc2ccccc2cc1O [compound 25]	0.2	54		
CC1=NN(c2ccc(C(F)(F)F)cc2)C(=O)C1=C(C)NNC(=O)c1ccc(O)cc1 [compound 31]	0.0052	63		
CC1=NN(c2ccccc2)C(=O)C1=C(C)NNC(=O)c1cccc([N+](=O)[O-])c1 [compound 14]	0.072	91		
CC1=NN(c2cccc(C(F)(F)F)c2)C(=O)C1=C(C)NNC(=O)c1ccccc1O [compound 45]	0.03	74		
CC1=NN(c2ccccn2)C(=O)C1=C(C)NNC(=O)c1ccc(O)cc1O [compound 87]	0.6	71		
COC(=O)c1ccc(C(=O)NNC(C)=C2C(=O)N(c3ccc(C)c(C)c3)N=C2C)cc1 [compound 6]			17.6	64
CC1=NN(c2ccc(Cl)c(Cl)c2)C(=O)C1=C(C)NNC(=O)c1ccccc1[N+](=O)[O-] [compound 66]	0.033	133		
CC1=NN(c2cccc([N+](=O)[O-])c2)C(=O)C1=C(C)NNC(=O)c1ccc(O)cc1O [compound 86]	0.021	105		
CC1=NN(c2ccc(C(C)(C)C)cc2)C(=O)C1=C(C)NNC(=O)c1ccccc1[N+](=O)[O-] [compound 28]	0.037	99		
CC1=NN(c2ccc(I)cc2)C(=O)C1=C(C)NNC(=O)c1ccc(O)cc1 [compound 39]	0.028	97		
CC1=NN(c2ccc(C(F)(F)F)cc2)C(=O)C1=C(C)NNC(=O)c1ccc(O)cc1O [compound 33]	0.0011	96		
CC1=NN(c2ccc(Cl)c(Cl)c2)C(=O)C1=C(C)NNC(=O)c1cc2ccccc2cc1O [compound 63]	0.19	21		
COC(=O)c1ccc(C(=O)NNC(C)=C2C(=O)N(c3ccc(C(C)(C)C)cc3)N=C2C)cc1 [compound 4]	0.015	53		
CC1=NN(c2ccc(C)c(C)c2)C(=O)C1=C(C)NNC(=O)c1ccc(C(=O)O)cc1 [compound 7]	0.0022	99		

SMILES	EC50 [µg/mL]	Efficacy (%) (maximal growth rate)	EC50 [1] [nM]	Emax [%]
CC1=NN(c2ccc(Cl)c(Cl)c2)C(=O)C1=C(C)NNC(=O)c1ccc(O)c(O)c1 [compound 65]	0.0089	70		
CC1=NN(c2ccc(Cl)c(Cl)c2)C(=O)C1=C(C)NNC(=O)c1ccccc1O [compound 61]	0.029	91		
CC1=NN(c2ccc(C)c(C)c2)C(=O)C1=C(C)NNC(=O)c1cccc(C(=O)O)c1 [compound 13]	0.28	99		
CC1=NN(c2ccc(C)c(C)c2)C(=O)C1=C(C)NNC(=O)c1ccc(C(C)(C)C)cc1 [compound 76]	0.046	79		
CC1=NN(c2ccc(C(F)(F)F)cc2)C(=O)C1=C(C)NNC(=O)c1ccc(O)c(O)c1 [compound 34]	0.0052	99		
CC1=NN(c2ccc(C(F)(F)F)cc2)C(=O)C1=C(C)NNC(=O)c1cc2ccccc2cc1O [compound 32]	0.037	90		
Cc1ccc(-n2nc(C)c(C=NN3C(=O)C(=Cc4ccc(C(=O)O)cc4)SC3=S)c2O)cc1C [Reference Synthetic Example 1, 5-(4-carboxybenzylidene)-3-[(1-{3,4-dimethylphenyl}-5-hydroxy-3-methyl-1H-pyrazol-4-ylmethylene)amino]-2-thioxothiazolidin-4-one, reference compound]				7
CC1=NN(c2ccc(C(C)(C)C)cc2)C(=O)C1=C(C)NNC(=O)c1ccc(O)cc1O [compound 26]	0.0029	78		
CC1=NN(c2cccc(C(F)(F)F)c2)C(=O)C1=C(C)NNC(=O)c1ccc(O)c(O)c1 [compound 49]	0.0091	62		
CC1=NN(c2ccc(I)cc2)C(=O)C1=C(C)NNC(=O)c1ccccc1[N+](=O)[O-] [compound 42]	0.25	71		
CC1=NN(c2ccccc2)C(=O)C1=C(C)NNC(=O)c1ccc([N+](=O)[O-])cc1 [compound 22]	0.19	50		
CC1=NN(c2ccc(I)cc2)C(=O)C1=C(C)NNC(=O)c1ccc(O)c(O)c1 [compound 41]	0.032	115		
CC1=NN(c2ccc(C(C)(C)C)cc2)C(=O)C1=C(C)NNC(=O)c1ccc(N)cc1 [compound 69]	0.0057	89		
CC1=NN(c2cccc(C(F)(F)F)c2)C(=O)C1=C(C)NNC(=O)c1cc2ccccc2cc1O [compound 47]	0.19	48		
CC1=NN(c2ccccc2)C(=O)C1=C(C)NNC(=O)c1cc2ccccc2cc1O [compound 18]	0.055	94		
CC1=NN(c2ccc(C)c(C)c2)C(=O)C1=CNNC(=O)c1ccc(O)cc1O [compound 93]	0.0043	84		
CC1=NN(c2ccc(I)cc2)C(=O)C1=C(C)NNC(=O)c1cc2ccccc2cc1O [compound 40]	0.25	37		
CC1=NN(c2ccc(C)c(C)c2)C(=O)C1=C(C)NNC(=O)c1ccc(C(F)(F)F)cc1 [compound 75]	0.063	89		
CC1=NN(c2cccc([N+](=O)[O-])c2)C(=O)C1=C(C)NNC(=O)c1cccc([N+](=O)[O-])c1 [compound 84]	0.13	109		
CC1=NN(c2ccc(C)c(C)c2)C(=O)C1=C(C)NNC(=O)c1cc2ccccc2cc1O [compound 55]	0.22	53		
